Experimental data published in patent publication US20200131669A1, “CYCLIC PEPTIDE COMPOUND HAVING HIGH MEMBRANE PERMEABILITY, AND LIBRARY CONTAINING SAME” (Chugai Seiyaku Kabushiki Kaisha, priority 2017, published 2020).
Starred links: 1 amine or outer side, 2 acyl side, 3 side chain; linkers in the order of their positions; H or OH if unused. Positions of bridges follow the written chain, without caps; N, C: chain ends. Non-standard residues stand in square brackets, D forms with d. Residues, ends and D or L forms follow the SMILES beside them. *: point of attachment. X18 = CC(C(=O)[C@H](COC(C)(C)C)N[*:1])[C@@H](Cc1ccccc1)C(=O)[*:2]; NMeAla(4-thiazolyl) = CN[C@@H](Cc1cscn1)C(=O)O; X16 = O=C(C1CCCCC1)[C@H](CC(=O)[*:2])N[*:1]; NMeF = CN[C@@H](Cc1ccccc1)C(=O)O; NMeGABA = CN(CCCC(=O)[*:2])[*:1]; NMeD = CN[C@@H](CC(=O)O)C(=O)O; NMeL = CN[C@@H](CC(C)C)C(=O)O; NMeV = CN[C@H](C(=O)O)C(C)C; NMeA = CN[C@@H](C)C(=O)O; Piperidide = C1CCN(*)CC1; dNMeA = CN[C@H](C)C(=O)O; Sar = CNCC(=O)O; tBu = CC(C)(C)*

assay: Caco-2 membrane permeability, improved method as used in the following Examples (96-well, 20 to 24 h preincubation); format: in vitro ADME; conditions: human, Caco-2, Caco-2 (cm/sec)
Procedure, shortened: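 Caco-2 monolayers were grown three weeks and preincubated 20–24 h at 37 °C with compound in DMEM+FaSSIF (1% DMSO) apically. The assay then used compound in FaSSIF/HBSS (1% DMSO, pH 6.0) apically and HBSS with 4% BSA (pH 7.4) basally. Basal samples were taken at 180 min for LC/MS, and Papp (cm/sec) was calculated.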

Row | SMILES | Papp A→B at 180 min [×10⁻⁶ cm/s]
1 | CC(C)C[C@@H]1NC(=O)[C@H](Cc2ccccc2)N(C)C(=O)[C@@H](C(C)C)NC(=O)C[C@@H](C(=O)N2CCCCC2)NC(=O)[C@H](Cc2ccccc2)N(C)C(=O)[C@H](Cc2ccccc2)N(C)C(=O)[C@H](COC(C)(C)C)NC(=O)[C@H](CC(C)C)N(C)C(=O)CN(C)C(=O)[C@H]([C@@H](C)O)NC(=O)[C@H](CC(C)C)N(C)C1=O [pd215] ([dV][NMeF]L[NMeL]T[Sar][NMeL]S(tBu)[NMeF][NMeF]D-Piperidide; lactam N-11) | 1.2
2 | CC(C)C[C@H]1C(=O)N[C@@H](C(C)C)C(=O)N(C)[C@@H](Cc2ccccc2)C(=O)N(C)[C@@H](Cc2ccccc2)C(=O)N[C@@H](COC(C)(C)C)C(=O)N(C)[C@@H](CC(C)C)C(=O)N[C@@H]([C@@H](C)O)C(=O)N(C)[C@@H](Cc2ccccc2)C(=O)N(C)[C@@H](CC(C)C)C(=O)N[C@H](C(=O)C2CCCCC2)CC(=O)N(C)CCCC(=O)N1C [pd216] (cyclo([NMeF][NMeF]S(tBu)[NMeL]T[NMeF][NMeL][X16][NMeGABA][NMeL]V)) | 1.2
3 | CC(C)C[C@@H]1NC(=O)[C@H](Cc2ccccc2)N(C)C(=O)[C@H](C)NC(=O)C[C@@H](C(=O)N2CCCCC2)NC(=O)[C@H](Cc2ccccc2)N(C)C(=O)[C@H](Cc2ccccc2)N(C)C(=O)[C@H](COC(C)(C)C)NC(=O)[C@H](CC(C)C)N(C)C(=O)CN(C)C(=O)[C@H]([C@@H](C)O)NC(=O)[C@H](CC(C)C)N(C)C1=O [pd217] (A[NMeF]L[NMeL]T[Sar][NMeL]S(tBu)[NMeF][NMeF]D-Piperidide; lactam N-11) | 1.1
4 | CC(C)C[C@@H]1NC(=O)[C@H](CC(C)C)N(C)C(=O)[C@H](C)N(C)C(=O)C[C@@H](C(=O)N(C)[C@@H](Cc2ccccc2)C(=O)N[C@@H](C)C(=O)N2CCCCC2)NC(=O)[C@H]([C@@H](C)O)NC(=O)[C@H](CC(C)C)N(C)C(=O)[C@H](Cc2ccccc2)NC(=O)[C@H](Cc2ccccc2)N(C)C(=O)[C@H](CC(C)C)N(C)C1=O [pd218] ([NMeA][NMeL]L[NMeL][NMeF]F[NMeL]TD[NMeF]A-Piperidide; lactam N-9) | 1.1
5 | CC(C)C[C@@H]1NC(=O)[C@H](Cc2ccccc2)C(C)C(=O)[C@H](COC(C)(C)C)NC(=O)[C@H](Cc2ccccc2)N(C)C(=O)[C@H](C)N(C)C(=O)[C@H](CC(C)C)N(C)C(=O)[C@H]2CCCN2C(=O)C[C@@H](C(=O)N2CCCCC2)N(C)C(=O)[C@H](Cc2ccccc2)N(C)C(=O)[C@H]([C@@H](C)O)NC(=O)[C@H](C(C)C)N(C)C1=O (stereo partly drawn) [pd219] ([dP][NMeL][NMeA][NMeF][X18]L[NMeV]T[NMeF][NMeD]-Piperidide; lactam N-10) | 1.1
6 | CC(C)C[C@@H]1NC(=O)[C@H](Cc2ccccc2)N(C)C(=O)[C@H](COC(C)(C)C)NC(=O)[C@H](Cc2ccccc2)N(C)C(=O)[C@H](C)N(C)C(=O)[C@H](CC(C)C)N(C)C(=O)[C@@H](C)NC(=O)C[C@@H](C(=O)N2CCCCC2)NC(=O)[C@H](Cc2ccccc2)N(C)C(=O)[C@H]([C@@H](C)O)NC(=O)[C@H](CC(C)C)N(C)C1=O [pd220] ([dA][NMeL][NMeA][NMeF]S(tBu)[NMeF]L[NMeL]T[NMeF]D-Piperidide; lactam N-11) | 1.1
7 | CC(C)C[C@@H]1NC(=O)[C@H](Cc2ccccc2)N(C)C(=O)[C@@H](C(C)C)NC(=O)C[C@@H](C(=O)N2CCCCC2)NC(=O)[C@H](Cc2ccccc2)N(C)C(=O)[C@H](Cc2ccccc2)N(C)C(=O)[C@H](C(C)C)NC(=O)[C@H](CC(C)C)N(C)C(=O)CN(C)C(=O)[C@H]([C@@H](C)O)NC(=O)[C@H](CC(C)C)N(C)C1=O [pd221] ([dV][NMeF]L[NMeL]T[Sar][NMeL]V[NMeF][NMeF]D-Piperidide; lactam N-11) | 1.1
8 | CC(C)C[C@@H]1NC(=O)[C@H](Cc2ccccc2)N(C)C(=O)[C@H](CC(C)C)N(C)C(=O)[C@@H](C)N(C)C(=O)C[C@@H](C(=O)N2CCCCC2)NC(=O)[C@H](CC(C)C)N(C)C(=O)[C@H](Cc2ccccc2)N(C)C(=O)[C@H]([C@@H](C)O)NC(=O)[C@H](Cc2ccccc2)N(C)C1=O [pd223] ([dNMeA][NMeL][NMeF]L[NMeF]T[NMeF][NMeL]D-Piperidide; lactam N-9) | 1.1
9 | CC(C)C[C@@H]1NC(=O)[C@H](Cc2ccccc2)N(C)C(=O)[C@@H](C)NC(=O)C[C@@H](C(=O)N2CCCCC2)N(C)C(=O)[C@H](Cc2ccccc2)N(C)C(=O)[C@H](Cc2ccccc2)N(C)C(=O)[C@H](COC(C)(C)C)NC(=O)[C@H](CC(C)C)N(C)C(=O)CN(C)C(=O)[C@H]([C@@H](C)O)NC(=O)[C@H](CC(C)C)N(C)C1=O [pd224] ([dA][NMeF]L[NMeL]T[Sar][NMeL]S(tBu)[NMeF][NMeF][NMeD]-Piperidide; lactam N-11) | 1
10 | CC[C@H](C)[C@@H]1NC(=O)[C@H](CC(C)C)N(C)C(=O)CN(C)C(=O)[C@H]([C@@H](C)O)NC(=O)[C@H](Cc2ccccc2)N(C)C(=O)[C@H](CC(C)C)NC(=O)[C@H](Cc2ccccc2)N(C)C(=O)[C@@H](CC(C)C)NC(=O)C[C@@H](C(=O)N2CCCCC2)NC(=O)[C@H](CC(C)C)N(C)C(=O)[C@H](Cc2ccccc2)N(C)C1=O [pd225] ([dL][NMeF]L[NMeF]T[Sar][NMeL]I[NMeF][NMeL]D-Piperidide; lactam N-11) | 1
11 | CC(C)C[C@@H]1NC(=O)[C@H](Cc2ccccc2)N(C)C(=O)[C@H](C)N(C)C(=O)C[C@@H](C(=O)N2CCCCC2)NC(=O)[C@H](CC(C)C)N(C)C(=O)[C@H](Cc2ccccc2)N(C)C(=O)[C@H](Cc2ccccc2)NC(=O)[C@H](Cc2cscn2)N(C)C(=O)[C@H](C)N(C)C(=O)[C@H]([C@@H](C)O)NC(=O)[C@H](CC(C)C)N(C)C1=O [pd226] ([NMeA][NMeF]L[NMeL]T[NMeA][NMeAla(4-thiazolyl)]F[NMeF][NMeL]D-Piperidide; lactam N-11) | 0.68
12 | CC(C)C[C@@H]1NC(=O)[C@H](Cc2ccccc2)N(C)C(=O)C[C@@H](C(=O)N2CCCCC2)NC(=O)[C@H](CC(C)C)N(C)C(=O)CN(C)C(=O)[C@H]([C@@H](C)O)NC(=O)[C@H](Cc2ccccc2)N(C)C(=O)[C@H](Cc2ccccc2)N(C)C(=O)[C@H](CC(C)C)NC(=O)[C@H](Cc2ccccc2)N(C)C(=O)[C@H](CC(C)C)N(C)C1=O [pd227] ([NMeF]L[NMeL][NMeF]L[NMeF][NMeF]T[Sar][NMeL]D-Piperidide; lactam N-11) | 0.61
13 | CC(C)C[C@@H]1NC(=O)[C@H](CC(C)C)N(C)C(=O)C[C@@H](C(=O)N2CCCCC2)NC(=O)[C@H](CC(C)C)N(C)C(=O)CN(C)C(=O)[C@H]([C@@H](C)O)NC(=O)[C@H](Cc2cscn2)N(C)C(=O)[C@H](Cc2ccccc2)N(C)C(=O)[C@H](Cc2ccccc2)NC(=O)[C@H](Cc2ccccc2)N(C)C(=O)[C@H](CC(C)C)N(C)C1=O [pd228] ([NMeL]L[NMeL][NMeF]F[NMeF][NMeAla(4-thiazolyl)]T[Sar][NMeL]D-Piperidide; lactam N-11) | 0.58
14 | CC(C)C[C@@H]1NC(=O)[C@H](Cc2ccccc2)N(C)C(=O)[C@H](C(C)C)N(C)C(=O)C[C@@H](C(=O)N2CCCCC2)NC(=O)[C@H]([C@@H](C)O)NC(=O)[C@H](Cc2ccccc2)N(C)C(=O)[C@H](Cc2ccccc2)NC(=O)[C@H](Cc2ccccc2)N(C)C(=O)CN(C)C(=O)[C@H](C)N(C)C(=O)[C@H](CC(C)C)N(C)C1=O [pd229] ([NMeV][NMeF]L[NMeL][NMeA][Sar][NMeF]F[NMeF]TD-Piperidide; lactam N-11) | 0.41
15 | CC(C)C[C@@H]1NC(=O)[C@H](Cc2ccccc2)N(C)C(=O)[C@H]([C@@H](C)O)NC(=O)[C@H](Cc2ccccc2)NC(=O)[C@H](Cc2ccccc2)N(C)C(=O)C[C@@H](C(=O)N2CCCCC2)NC(=O)[C@H](C)N(C)C(=O)[C@H](CC(C)C)N(C)C(=O)CN(C)C(=O)[C@H](CC(C)C)N(C)C(=O)[C@H](Cc2ccccc2)N(C)C1=O [pd230] ([NMeF]FT[NMeF]L[NMeF][NMeL][Sar][NMeL][NMeA]D-Piperidide; lactam N-11) | 0.25
16 | CC(C)C[C@@H]1NC(=O)[C@H](Cc2ccccc2)N(C)C(=O)[C@H]([C@@H](C)O)NC(=O)[C@H](Cc2ccccc2)N(C)C(=O)CN(C)C(=O)[C@H](Cc2ccccc2)NC(=O)[C@H](CC(C)C)N(C)C(=O)[C@H](CC(C)C)NC(=O)[C@H](Cc2ccccc2)N(C)C(=O)[C@H](C)N(C)C(=O)C[C@@H](C(=O)N2CCCCC2)NC1=O [pd231] ([NMeA][NMeF]L[NMeL]F[Sar][NMeF]T[NMeF]LD-Piperidide; lactam N-11) | 0.21
17 | CC(C)C[C@H]1C(=O)N(C)[C@@H](Cc2ccccc2)C(=O)N(C)[C@@H](Cc2ccccc2)C(=O)N[C@@H]([C@@H](C)O)C(=O)N(C)[C@@H](C)C(=O)N(C)[C@@H](Cc2ccccc2)C(=O)N[C@H](C(=O)N2CCCCC2)CC(=O)N(C)[C@@H](C)C(=O)N(C)[C@@H](CC(C)C)C(=O)N(C)[C@@H](Cc2ccccc2)C(=O)N[C@@H](C)C(=O)N1C [pd232] ([NMeA][NMeL][NMeF]A[NMeL][NMeF][NMeF]T[NMeA][NMeF]D-Piperidide; lactam N-11) | 0.19

same assay, conditions: human, Caco-2; read-out: Caco-2

Row | SMILES | Papp A→B at 180 min [×10⁻⁶ cm/s]
18 | CC[C@H](C)[C@@H]1NC(=O)[C@H](C)N(C)C(=O)C[C@@H](C(=O)N(C)[C@@H](Cc2ccccc2)C(=O)N[C@@H](C)C(=O)N2CCCCC2)NC(=O)[C@H](Cc2ccccc2)N(C)C(=O)CN(C)C(=O)[C@H]([C@@H](C)O)NC(=O)[C@H](C)N(C)C(=O)[C@H](C(C)C)N(C)C(=O)[C@H](Cc2ccccc2)NC(=O)[C@H](CC(C)C)N(C)C(=O)[C@H](CC(C)C)N(C)C1=O [pd222] ([NMeA]I[NMeL][NMeL]F[NMeV][NMeA]T[Sar][NMeF]D[NMeF]A-Piperidide; lactam N-11) | 1.1
